This note sets out measurements from ChEMBL document CHEMBL3632615, “N(6)-(2-Hydroxyethyl)adenosine in the Medicinal Mushroom Cordyceps cicadae Attenuates Lipopolysaccharide-Stimulated Pro-inflammatory Responses by Suppressing TLR4-Mediated NF-κB Signaling Pathways” (J Nat Prod, 2015).

What all share (type): cell-based
For experiment [1], the target named is T1, Toll-like receptor 4 (Mus musculus) (UniProt Q9QUK6).
T1 sequence (whole entry): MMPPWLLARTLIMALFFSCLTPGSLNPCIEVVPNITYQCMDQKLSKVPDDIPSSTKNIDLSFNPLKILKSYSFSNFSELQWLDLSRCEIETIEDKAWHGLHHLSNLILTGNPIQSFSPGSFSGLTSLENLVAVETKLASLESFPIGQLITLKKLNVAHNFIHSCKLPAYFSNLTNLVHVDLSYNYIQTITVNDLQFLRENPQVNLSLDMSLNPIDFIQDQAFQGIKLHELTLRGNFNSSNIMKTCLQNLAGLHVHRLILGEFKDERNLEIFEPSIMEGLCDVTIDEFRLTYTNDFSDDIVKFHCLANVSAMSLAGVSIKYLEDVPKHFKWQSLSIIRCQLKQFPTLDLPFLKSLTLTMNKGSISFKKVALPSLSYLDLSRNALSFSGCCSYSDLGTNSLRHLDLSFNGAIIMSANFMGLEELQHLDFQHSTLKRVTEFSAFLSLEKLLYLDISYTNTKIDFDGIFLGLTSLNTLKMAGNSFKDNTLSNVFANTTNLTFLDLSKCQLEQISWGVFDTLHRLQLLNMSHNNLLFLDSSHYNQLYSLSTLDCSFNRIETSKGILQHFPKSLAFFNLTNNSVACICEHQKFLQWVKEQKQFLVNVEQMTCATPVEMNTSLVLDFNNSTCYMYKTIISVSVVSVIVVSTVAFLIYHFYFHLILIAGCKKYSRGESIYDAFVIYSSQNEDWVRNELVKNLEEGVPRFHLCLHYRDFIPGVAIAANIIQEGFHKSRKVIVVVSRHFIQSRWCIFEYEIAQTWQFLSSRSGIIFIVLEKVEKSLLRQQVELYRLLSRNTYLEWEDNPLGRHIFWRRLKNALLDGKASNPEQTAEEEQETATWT
The experiment can be described thus: Inhibition of TLR4-mediated NF-kappaB signaling pathway in BALB/c mouse RAW264.7 cells assessed as suppression of LPS-stimulated TNF-alpha production at 0.5 to 5 ug/ml preincubated for 1 hr followed by LPS challenge measured after 6 hrs by immunoblot analysis in presence of HEA. On the technique in general: In western blotting, separated proteins are transferred to a membrane and probed.

Experiment [2] has as its target T1, Toll-like receptor 4 (Mus musculus). The experiment in a line: Inhibition of TLR4-mediated NF-kappaB signaling pathway in BALB/c mouse RAW264.7 cells assessed as suppression of LPS-stimulated TNF-alpha production at 0.5 to 5 ug/ml preincubated for 1 hr followed by LPS challenge measured after 6 hrs by immunoblot analysis in presence of adenosine.
For experiment [3] the target is unchanged. The experiment can be described thus: Inhibition of TLR4-mediated NF-kappaB signaling pathway in BALB/c mouse RAW264.7 cells assessed as suppression of LPS-stimulated TNF-alpha production at 1 to 10 ug/ml preincubated for 1 hr followed by LPS challenge measured after 6 hrs by immunoblot analysis.
The target is the same in experiment [4]. The experiment in a line: Inhibition of TLR4-mediated NF-kappaB signaling pathway in BALB/c mouse RAW264.7 cells assessed as suppression of LPS-stimulated PGE2 production at 1 to 10 ug/ml preincubated for 1 hr followed by LPS challenge measured after 6 hrs by immunoblot analysis.
Experiment [5] has the same target. The experiment can be described thus: Inhibition of TLR4-mediated NF-kappaB signaling pathway in BALB/c mouse RAW264.7 cells assessed as suppression of LPS-stimulated PGE2 production at 0.5 to 5 ug/ml preincubated for 1 hr followed by LPS challenge measured after 6 hrs by immunoblot analysis in presence of adenosine.
Experiment [6] has the same target. The experiment in a line: Inhibition of TLR4-mediated NF-kappaB signaling pathway in BALB/c mouse RAW264.7 cells assessed as suppression of LPS-stimulated PGE2 production at 0.5 to 5 ug/ml preincubated for 1 hr followed by LPS challenge measured after 6 hrs by immunoblot analysis in presence of HEA.
The target is the same in experiment [7]. The experiment in a line: Inhibition of TLR4-mediated NF-kappaB signaling pathway in BALB/c mouse RAW264.7 cells assessed as suppression of LPS-stimulated TNF-alpha production at 0.5 to 5 ug/ml preincubated for 1 hr followed by LPS challenge measured after 6 hrs by immunoblot analysis in presence of cordycepin.
Experiment [8] has the same target. The experiment in a line: Inhibition of TLR4-mediated NF-kappaB signaling pathway in BALB/c mouse RAW264.7 cells assessed as suppression of LPS-stimulated TNF-alpha production at 2.5 to 10 ug/ml preincubated for 1 hr followed by LPS challenge measured after 6 hrs by immunoblot analysis.
The target is the same in experiment [9]. The experiment in a line: Inhibition of TLR4-mediated NF-kappaB signaling pathway in BALB/c mouse RAW264.7 cells assessed as suppression of LPS-stimulated PGE2 production at 0.5 to 5 ug/ml preincubated for 1 hr followed by LPS challenge measured after 6 hrs by immunoblot analysis in presence of cordycepin.
The target is the same in experiment [10]. The experiment in a line: Inhibition of TLR4-mediated NF-kappaB signaling pathway in BALB/c mouse RAW264.7 cells assessed as suppression of LPS-stimulated PGE2 production at 2.5 to 10 ug/ml preincubated for 1 hr followed by LPS challenge measured after 6 hrs by immunoblot analysis.

Active and inactive are the calls of the source. No cut-off for these calls is given here.

Turning to `Nc1ncnc2c1ncn2[C@@H]1O[C@H](CO)C[C@H]1O`, the inhibition entry in experiment [1], in experiment [2], in experiment [5] and in experiment [6] was “inactive” in each case. For the same compound, the inhibition entry in [3] and in experiment [4] was “Active” throughout.

In the case of `Nc1ncnc2c1ncn2[C@@H]1O[C@H](CO)[C@@H](O)[C@H]1O`, the inhibition entry in experiment [1], in [7], in experiment [9] and in [6] was “inactive” in each case. In addition, the inhibition result in [8] and in experiment [10] was “Active” each time.
